Experimental data: patent US5916906A, “Compositions comprising nicotinylalanine and an inhibitor of glycine conjugation or vitamin B6” (priority 1997, dated 1999)
Where two headings read alike, the source gives them in different places.

Columns and labels:
LP-BM5 MuLV Retrovirus = settings: cited from earlier work
[1] = Plasma nicotinamide, NAL and NAL-X levels by HPLC after i.p. nicotinylalanine with or without ASA in uninfected mice; assay type: in vivo, C57BL/6 mice; settings: for Plasma nicotinamide (NAm) level / concentration at 2 h: mean ± S.E., N=8; for concentration at 2 h: mouse, plasma, ip, 400 mg/kg, read-out: Plasma nicotinylalanine (NAL) level
Method: The concentration of nicotinamide and its major metabolites were determined by comparison of peak area ratios of the unknown versus internal standard (6-methylnicotinamide, Sigma Chemical Company) to the standard curves run in control mouse blood plasma.
Mice were treated with racemic nicotinylalanine alone (400 mg/kg) or in combination with acetyl salicylic acid (ASA) at a dose of either 20 mg/kg or 100 mg/kg body weight. […] Control mice received the vehicle for the drug compositions, being phosphate buffered saline (PBS), at the same volume on the same dose schedule as the drug-treated mice. Chronic dosing was performed daily for two weeks, Monday through Friday, and one group of mice received only a single (acute) dose of nicotinylalanine. All mice were killed two hours after their final dose and blood was collected by cardiac puncture and stored on ice, until centrifugation in a microfuge at 10,000 rpm to obtain plasma.
Concentrations of nicotinamide, nicotinamide-oxide, 1-methyl-nicotinamide, and nicotinylalanine extracted from 90% methanol, dried under N2, and reconstituted in water as above were determined by comparison of the peak area ratios of the unknown vs. the internal standard to the standard curve. Concentrations of the unidentified nicotinylalanine metabolite (NAL-X) were determined in the same way as above, except peaks were compared to the standard curve for known nicotinylalanine. The results are expressed as nanomoles of nicotinamide and nicotinylalanine per ml of plasma (nmol/ml).

[2] = Plasma pharmacokinetics of nicotinylalanine after i.v., i.p. and oral administration; assay type: in vivo, C57BL/6 mice; settings: for bioavailability / half-life / Tmax: 400 mg/kg; for Tmax: read-out: Time of peak plasma level of NAL (converted); for k el: read-out: Ke (converted)
Method: The purpose of this study was to determine the plasma pharmacokinetics of nicotinylalanine in fasted, female C57BL/6 mice after intravenous (i.v.), intraperitoneal (i.p.), and oral (p.o.) administration of equivalent doses of nicotinylalanine at 400 mg/kg body weight. The analytic methods used in these studies were the same as described in Example 1 and Table 1 for Metabolic Studies.
Bioavailability of nicotinylalanine after p.o. and i.p. administration was determined by comparison of the areas under the plasma time curves with the area under the plasma time curve for the i.v. administration of an equivalent dose at 400 mg/kg into the tail vein. Time points were evaluated from five minutes to 1,440 minutes (24 hours) after dosing, although the rapid pharmacokinetics under each dosing regimen focused the time parameters to less than six hours.
Although there are several compartmental analyses which could be used to model the pharmacokinetic data, for derivation of pharmacokinetic parameters a simple non-compartmental analysis was selected. The computer program used to generate the parameters (Table 5) and for fitting the curves (FIGS. 7, 8) was the Lagran Program using the Lagrange Function. See, Rocci M. L. and Jusko W. J. 1983, "Lagran Program for Area and Moments in Pharmacokinetic Analysis", Comp. Prog. Biomed. 16, 203-212; and Yeh K. C. and Quan K. C. 1978, "A Comparison of Numerical Integrating Algorithms by Trapezoidal Lagrange and Spline Approximations", J. Pharmacokinet. Biopharmacol. 6, 79-93.

[3] = acute (single) NAL 400 mg/kg i.p., two hours after dose
[4] = chronic (2 Week) dosing of nicotinylalanine alone
[5] = chronic (2 weeks) NAL 400 mg/kg i.p. alone, two hours after last dose
[6] = two hours after acute i.p. 400 mg/kg NAL

For `Cc1cn([C@H]2C[C@H](N=[N+]=[N-])[C@@H](CO)O2)c(=O)[nH]c1=O` [AZT, 3'azido-3'deoxythymidine, reference compound], the “Disease progression (in words)” value (LP-BM5 MuLV Retrovirus; AZT 0.1 mg/kg (Eiseman 1991)) is listed as “still delayed disease progression” and the “Control of LP-BM5 disease (in words)” value (LP-BM5 MuLV Retrovirus; AZT 0.5 mg/kg in drinking water, chronic (Eiseman 1991)) is listed as “effective in controlling LP-BM5 disease”.

For `NC(CC(=O)c1cccnc1)C(=O)O` (racemic) [NAL, γ-(3-pyridyl)-γ-oxo-α-aminobutyrate], the “Plasma nicotinamide (NAm) level” value [1, 3] was 7.4 ± 2.3 nmol/mL, the “Change in plasma nicotinylalanine levels” value [1, 4] was “nearly ten-fold decrease” and the “Nicotinamide plasma level (in words)” value [1, 4] was “return to nearly baseline levels of nicotinamide”. The “Plasma nicotinamide (NAm) level” value [1, 5] was 4.7 ± 1.1 nmol/mL, the concentration at 2 h [1, 3] was 115 ± 65.6 µM and the concentration at 2 h [1, 5] was 11.2 ± 4.5 µM. The “Nicotinamide plasma level versus PBS-injected controls” value [1, 6] was “about twice those found in PBS-injected controls”, the “Plasma level of NAL versus NAL-X” value [1, 6] was “about twice as high” and the CL ([2]; NAL 400 mg/kg, i.p., fasted female mice) was 31.6. The CL ([2]; NAL 400 mg/kg, p.o., fasted female mice) was 50.2, the “Volume of distribution (Vdss), in words” value ([2]; especially in the oral dosage form) was “consistent with a compound well-distributed in aqueous compartments” and the “Bioavailability i.p. versus i.v. or oral, in words” value ([2]; i.p. compared to i.v. or oral) was “apparently greater however when the i.p. route is used”. It also gave a bioavailability ([2]; mouse, plasma, ip, NAL 400 mg/kg, i.p., fasted female mice, read-out: F (fraction bioavailable)) of 183%, a half-life ([2]; mouse, plasma, ip, NAL 400 mg/kg, i.p., fasted female mice, read-out: t1/2) of 24.9 min and a half-life ([2]; mouse, plasma, ip, i.p., read-out: t1/2 (half-life of plasma nicotinylalanine)) of ~25 min. It also gave a Tmax ([2]; mouse, plasma, ip) of ~5 min, a k el ([2]; mouse, plasma, ip, NAL 400 mg/kg, i.p., fasted female mice) of 0.000463 s⁻¹ and a Vd/F ([2]; mouse, plasma, ip, NAL 400 mg/kg, i.p., fasted female mice, read-out: Vdss) of 0.821 L/kg. For the same compound, the half-life ([2]; mouse, plasma, iv, NAL 400 mg/kg, i.v., fasted female mice, read-out: t1/2) was 40.2 min, the half-life ([2]; mouse, plasma, iv, i.v., read-out: t1/2 (half-life of plasma nicotinylalanine)) was ~40 min and the Tmax ([2]; mouse, plasma, iv) was ~5 min. The clearance ([2]; mouse, plasma, iv, NAL 400 mg/kg, fasted female mice) was 3.44 L/h/kg, the k el ([2]; mouse, plasma, iv, NAL 400 mg/kg, i.v., fasted female mice) was 0.000287 s⁻¹ and the Vd ([2]; mouse, plasma, iv, NAL 400 mg/kg, i.v., fasted female mice, read-out: Vdss) was 1.33 L/kg. It also gave a bioavailability ([2]; mouse, plasma, po, NAL 400 mg/kg, p.o., fasted female mice, read-out: F (fraction bioavailable)) of 105%, a half-life ([2]; mouse, plasma, po, NAL 400 mg/kg, p.o., fasted female mice, read-out: t1/2) of 58.7 min and a bioavailability ([2]; mouse, plasma, po, oral dose, read-out: fraction bioavailable (F)) of ~100%. For the same compound, the half-life ([2]; mouse, plasma, po, oral, read-out: t1/2 (half-life of plasma nicotinylalanine)) was ~60 min, the k el ([2]; mouse, plasma, po, NAL 400 mg/kg, p.o., fasted female mice) was 0.000197 s⁻¹ and the Vd/F ([2]; mouse, plasma, po, NAL 400 mg/kg, p.o., fasted female mice, read-out: Vdss) was 3.35 L/kg. For the same compound, the Tmax ([2]; mouse, plasma, oral gavage) was ~10 min, the “Nicotinamide plasma level versus control” value ([2]; oral NAL 400 mg/kg, transient) was “about twice control” and the “t1/2 oral versus i.p.” value ([2]; oral compared with i.p. dose) was “approximately twice as long”. For the same compound, the “t1/2 oral versus i.v.” value ([2]; oral compared with i.v. dose) was “approximately one and a half (11/2) times as long”.
